From US11267791B2 (F.I.S.—FABBRICA ITALIANA SINTETICI S.P.A., priority 2018, dated 2022)
Where a name gives a salt, the structure may show the parent alone. Blank lines part the entries; values can stand above or below the compound they belong to.

How the values were obtained:
[1] = Hygroscopicity study by DVS (Dynamic Vapour Sorption); type: physicochemical; conditions: 25° C.; for humidity adsorbed (water uptake) / hygroscopicity (water uptake): at 95% RH
Description: Hygroscopicity study was determined by DVS (Dynamic Vapour Sorption) with a Q5000 TA instrument. This is a gravimetric technique that measures how much water is absorbed or desorbed by a sample at different relative humidity (RH). At each RH, the sample mass must be allowed to reach gravimetric equilibrium (or surpassed time limit) before progressing to the next humidity level. Sorption and desorption isotherms were performed at 25° C. over a range of 0-95% RH. The samples gently milled were not previously dried but they were exposed to 0% RH until a stable weight was reached before starting the DVS cycle. This equilibration step allows possible adsorbed humidity to be eliminated.

[2] = Preliminary stability in water at RT, slurry analysed by XRPD; type: physicochemical; conditions: XRPD at 1, 3, 6 and 24 h
Description: A preliminary test stability study in water at RT of 4 ETP monoethanolamine salt Forms was performed in order to observed possible crystalline transitions. A sample of each crystalline form was slurried in water at RT and periodically analysed by XRPD (1, 3, 6 and 24 h) in order to detect possible crystalline transformation.

[3] = cited from earlier work
[4] = Stability study of Form E, atmospheric and ICH accelerated conditions, XRPD; type: physicochemical; conditions: after 1 day of exposition
Description: In the first ETP monoethanolamine salt Form E was exposed to atmospheric conditions for 1 day was unstable, and a new form very similar to Form II (ETP bisethanolamine salt) described in U.S. Pat. No. 8,372,822B2 was recovered according to XRPD analysis. In the second ETP monoethanolamine salt Form E was exposed to ICH guideline accelerated conditions (40° C./75 RH %). Under these conditions, Form E converted partially to a new unknown form.

[5] = Relative thermodynamic solubility in water at RT by HPLC; type: physicochemical
Description: The relative solubility of the above mentioned 4 ETP monoethanolamine salt Forms was studied in water at RT. The validity of any solubility measurement requires that the crystalline form must remain stable with respect to any phase conversion taking place during the determination of the equilibrium solubility.
This suspension was stirred 24 h at RT in order to reach the equilibrium. Then, a sample was filtered and the resulting filtrate was analysed by HPLC by duplicate. The average peak area of ETP gave a relative value of the thermodynamic solubility of each form that can be compared with each other. The solids recovered after filtration were also analysed by XRPD to check that no crystalline phase transformation occurred during the slurring.
HPLC ETP peak area in each of the different forms analysed was measured in order to establish their relative solubility. The HPLC analyses were performed by duplicate for each ETP monoethanolamine salt.

[6] = Crystalline stability of Form D1 under accelerated ICH guideline conditions, XRPD; type: physicochemical
From the text: This sample was periodically analysed by XRPD in order to observe possible crystalline transformation or amorphization. Moreover, a sample of ETP monoethanolamine salt Form D1 stored on a XRPD silicon holder was exposed in a climatic chamber. It is worth noting that these stability conditions are harsher than standard stability conditions due to the high surface of exposition of the solid stored on the XRPD silicon holder. The samples were periodically analysed by XRPD to observe possible crystalline transformation.

Compound: Eltrombopag monoethanolamine salt [Form D]
hygroscopicity in words ([1]; up to 85% RH, listed as ETP monoethanolamine salt Form D): not hygroscopic

Compound: Eltrombopag monoethanolamine salt [Form H]
crystalline stability slurried in water [2]: remained stable | humidity adsorbed (water uptake) [1]: up to 1.4 % w/w | hygroscopicity (water uptake) [1]: 1.4 w/w

Compound: CC1=NN(c2ccc(C)c(C)c2)C(=O)/C1=N\Nc1cccc(-c2cccc(C(=O)O)c2)c1O [Eltrombopag olamine, Eltrombopag bisethanolamine salt]
thermally stable up to ([3]; at higher temperature endothermic reaction associated with degradation): about 125 °C | solubility in water [3]: sparingly soluble

Compound: Eltrombopag monoethanolamine salt [Form E]
result of stability study, crystalline form by XRPD ([4]; 40° C./75 RH %, ICH accelerated): partial conversion to a new form with a main peak at 8.6° (2θ) | result of stability study, crystalline form by XRPD ([4]; atmospheric conditions): Form II+one peak at 8.6° (2θ)

Next, values leading:

hygroscopicity (water uptake) ([1]; listed as ETP monoethanolamine salt Form H2): 0.6 w/w
Compound: Eltrombopag monoethanolamine salt [Form H2]

crystalline stability slurried in water [2]: remained stable | humidity adsorbed (water uptake) [1]: less than 0.2 % w/w | Intensity test average ([5]; average of solubility tests #1 and #2, HPLC ETP peak area): 2911 | Solubility test #1 (area counts) ([5]; saturated water solution, 24 h at RT, HPLC ETP peak area): 2722 area counts | Solubility test #2 (area counts) ([5]; saturated water solution, 24 h at RT, HPLC ETP peak area, repeat): 3100 area counts | crystalline stability in words ([6]; 2 months study period): remained stable | period the crystalline form remains stable ([6]; T=40° C./75±5% RH (chamber 45±2° C.-75±5% RH)): at least 2 months
Compound: CC1=NN(c2ccc(C)c(C)c2)C(=O)/C1=N\Nc1cccc(-c2cccc(C(=O)O)c2)c1O [Form D1, Eltrombopag monoethanolamine salt]
